From ChEMBL document CHEMBL3421539, “A novel cell-permeable, selective, and noncompetitive inhibitor of KAT3 histone acetyltransferases from a combined molecular pruning/classical isosterism approach” (J Med Chem, 2015)
pIC50, pKd, pKi: −log10 of the molar value. Active and inactive are the calls of the source. No cut-off for these calls is given here.

Tests used:
[1] = molecular target: T1, Histone acetyltransferase p300 (Homo sapiens, UniProt Q09472); experiment: Inhibition of P300 (unknown origin) using histone H3/[acetyl-3H]-acetyl coenzyme A as substrate
T1 sequence (Q09472 whole entry): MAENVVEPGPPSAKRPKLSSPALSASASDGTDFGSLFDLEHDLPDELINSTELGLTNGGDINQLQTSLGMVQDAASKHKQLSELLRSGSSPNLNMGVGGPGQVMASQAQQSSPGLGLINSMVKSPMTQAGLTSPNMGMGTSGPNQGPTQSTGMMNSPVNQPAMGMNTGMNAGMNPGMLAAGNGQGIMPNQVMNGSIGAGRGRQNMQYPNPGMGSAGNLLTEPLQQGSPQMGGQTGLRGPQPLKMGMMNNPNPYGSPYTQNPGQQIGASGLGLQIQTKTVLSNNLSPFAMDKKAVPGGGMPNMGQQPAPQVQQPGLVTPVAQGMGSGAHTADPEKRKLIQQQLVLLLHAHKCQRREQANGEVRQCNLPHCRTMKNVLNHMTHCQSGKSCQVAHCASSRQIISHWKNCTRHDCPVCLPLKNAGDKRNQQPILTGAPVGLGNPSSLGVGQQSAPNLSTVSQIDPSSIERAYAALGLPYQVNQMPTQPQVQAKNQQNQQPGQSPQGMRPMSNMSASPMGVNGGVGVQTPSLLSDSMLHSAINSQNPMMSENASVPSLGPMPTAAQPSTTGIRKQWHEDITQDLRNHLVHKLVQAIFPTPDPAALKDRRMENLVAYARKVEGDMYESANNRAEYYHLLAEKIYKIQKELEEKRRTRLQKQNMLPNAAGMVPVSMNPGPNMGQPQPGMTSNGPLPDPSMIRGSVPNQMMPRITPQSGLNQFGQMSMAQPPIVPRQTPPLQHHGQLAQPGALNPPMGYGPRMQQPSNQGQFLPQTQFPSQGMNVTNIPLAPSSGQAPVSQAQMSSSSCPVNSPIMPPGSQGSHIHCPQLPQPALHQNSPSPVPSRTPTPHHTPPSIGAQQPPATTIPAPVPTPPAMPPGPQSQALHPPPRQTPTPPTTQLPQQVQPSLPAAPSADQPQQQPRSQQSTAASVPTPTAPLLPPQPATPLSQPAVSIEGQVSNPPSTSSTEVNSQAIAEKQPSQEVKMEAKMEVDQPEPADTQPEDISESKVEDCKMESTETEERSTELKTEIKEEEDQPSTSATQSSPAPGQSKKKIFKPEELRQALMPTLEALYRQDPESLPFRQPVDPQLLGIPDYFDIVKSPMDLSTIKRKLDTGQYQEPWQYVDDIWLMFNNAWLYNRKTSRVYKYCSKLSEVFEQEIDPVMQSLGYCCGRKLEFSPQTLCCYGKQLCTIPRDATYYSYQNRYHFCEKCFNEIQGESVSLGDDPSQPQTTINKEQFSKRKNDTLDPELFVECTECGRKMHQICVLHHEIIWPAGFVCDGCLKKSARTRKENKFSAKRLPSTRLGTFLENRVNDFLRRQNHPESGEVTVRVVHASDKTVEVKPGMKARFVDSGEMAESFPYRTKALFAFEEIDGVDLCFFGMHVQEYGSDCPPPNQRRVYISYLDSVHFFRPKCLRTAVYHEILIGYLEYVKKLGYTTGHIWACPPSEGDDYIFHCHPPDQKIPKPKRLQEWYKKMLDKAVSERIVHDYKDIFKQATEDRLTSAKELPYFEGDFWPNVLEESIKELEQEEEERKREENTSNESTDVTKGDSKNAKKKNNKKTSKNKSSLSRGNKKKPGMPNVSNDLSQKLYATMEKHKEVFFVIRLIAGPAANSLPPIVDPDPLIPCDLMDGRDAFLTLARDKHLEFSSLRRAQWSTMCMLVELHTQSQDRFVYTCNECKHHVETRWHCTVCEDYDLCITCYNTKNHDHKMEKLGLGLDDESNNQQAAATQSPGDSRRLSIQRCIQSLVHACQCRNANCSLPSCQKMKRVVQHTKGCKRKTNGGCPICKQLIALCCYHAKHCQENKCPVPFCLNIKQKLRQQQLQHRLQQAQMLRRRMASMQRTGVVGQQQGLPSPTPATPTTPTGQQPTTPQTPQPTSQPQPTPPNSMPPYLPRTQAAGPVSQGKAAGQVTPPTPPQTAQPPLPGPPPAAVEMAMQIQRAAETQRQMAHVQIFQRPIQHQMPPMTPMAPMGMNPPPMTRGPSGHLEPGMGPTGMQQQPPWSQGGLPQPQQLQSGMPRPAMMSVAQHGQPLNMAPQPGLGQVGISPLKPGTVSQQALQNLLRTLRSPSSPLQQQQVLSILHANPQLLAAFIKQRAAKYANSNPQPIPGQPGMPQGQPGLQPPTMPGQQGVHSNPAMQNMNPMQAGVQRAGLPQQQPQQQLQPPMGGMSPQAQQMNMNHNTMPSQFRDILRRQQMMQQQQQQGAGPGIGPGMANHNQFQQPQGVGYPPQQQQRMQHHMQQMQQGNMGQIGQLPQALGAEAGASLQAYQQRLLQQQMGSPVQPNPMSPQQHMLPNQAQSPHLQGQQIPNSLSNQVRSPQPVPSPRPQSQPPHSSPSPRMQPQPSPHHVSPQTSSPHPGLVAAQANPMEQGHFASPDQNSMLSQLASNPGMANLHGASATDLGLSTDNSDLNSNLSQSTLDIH

[2] = Stability of the compound in aqueous medium assessed as hydrolysis after 10 mins to 24 hrs by HPLC analysis; assay type: physicochemical; conditions: buffer
[3] = molecular target: T1, Histone acetyltransferase p300; experiment: Inhibition of P300 (unknown origin) using histone H3/[acetyl-3H]-acetyl coenzyme A as substrate at 100 uM
[4] = Stability of the compound in organic solvent assessed as hydrolysis after 10 mins to 24 hrs by HPLC analysis; assay type: physicochemical
[5] = Stability of the compound in PBS at 25 degC after 2 mins to 24 hrs by HPLC analysis; assay type: physicochemical; conditions: buffer
[6] = molecular target: T1, Histone acetyltransferase p300; experiment: Binding affinity to human recombinant P300 catalytic domain by SPR analysis
[7] = molecular target: T2, Histone acetyltransferase KAT2B (Homo sapiens, UniProt Q92831); experiment: Inhibition of PCAF (unknown origin) using histone H3/[acetyl-3H]-acetyl coenzyme A as substrate at 100 uM
Target sequence in this assay (Q92831 whole entry, looked up): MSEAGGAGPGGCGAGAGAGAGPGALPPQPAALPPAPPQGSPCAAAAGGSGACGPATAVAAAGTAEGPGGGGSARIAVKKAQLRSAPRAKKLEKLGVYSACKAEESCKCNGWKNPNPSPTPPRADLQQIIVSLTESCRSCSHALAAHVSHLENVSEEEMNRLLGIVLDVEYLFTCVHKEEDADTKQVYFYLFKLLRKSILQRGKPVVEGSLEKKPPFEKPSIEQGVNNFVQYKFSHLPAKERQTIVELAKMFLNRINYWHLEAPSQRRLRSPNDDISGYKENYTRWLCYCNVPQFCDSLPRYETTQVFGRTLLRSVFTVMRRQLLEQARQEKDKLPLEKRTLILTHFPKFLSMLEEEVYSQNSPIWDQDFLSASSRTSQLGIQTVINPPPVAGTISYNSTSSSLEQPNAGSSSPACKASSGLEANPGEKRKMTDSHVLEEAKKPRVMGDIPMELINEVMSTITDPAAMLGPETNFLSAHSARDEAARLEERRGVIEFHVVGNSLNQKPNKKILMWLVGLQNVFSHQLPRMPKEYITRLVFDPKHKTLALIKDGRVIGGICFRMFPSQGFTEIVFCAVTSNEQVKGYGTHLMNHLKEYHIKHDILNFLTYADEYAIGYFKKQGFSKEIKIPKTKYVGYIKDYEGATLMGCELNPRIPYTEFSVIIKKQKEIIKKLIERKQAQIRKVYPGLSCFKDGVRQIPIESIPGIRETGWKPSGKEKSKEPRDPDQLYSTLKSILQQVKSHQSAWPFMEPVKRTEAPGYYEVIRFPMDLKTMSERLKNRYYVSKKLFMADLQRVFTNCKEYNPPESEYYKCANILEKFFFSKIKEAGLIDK

[8] = Stability of the compound in aqueous medium assessed as hydrolysis after 30 mins by HPLC analysis; assay type: physicochemical; conditions: buffer, 0.5 h
[9] = molecular target: T2, Histone acetyltransferase KAT2B; experiment: Inhibition of PCAF (unknown origin) using histone H3/[acetyl-3H]-acetyl coenzyme A as substrate at 10 uM
Target sequence in this assay (Q92831 whole entry, looked up): as above

[10] = molecular target: T2, Histone acetyltransferase KAT2B; experiment: Inhibition of PCAF (unknown origin) using histone H3/[acetyl-3H]-acetyl coenzyme A as substrate
Target sequence in this assay (Q92831 whole entry): as the sequence (Q92831 whole entry, looked up) above

[11] = molecular target: T1, Histone acetyltransferase p300; experiment: Inhibition of P300 in […] at 30 uM up to 40 mins by Histac FRET analysis; assay type: cell-based; conditions: COS-7
[12] = Apparent permeability of the compound at RT after 24 hrs by PAMPA; assay type: physicochemical
[13] = molecular target: T1, Histone acetyltransferase p300; conditions: 10 uM
Description: Inhibition of P300 (unknown origin) using histone H3/[acetyl-3H]-acetyl coenzyme A as substrate at 10 uM

[14] = molecular target: T1, Histone acetyltransferase p300; experiment: Inhibition of P300 in human U937 cells assessed as reduction in H4K5 histone acetylation at 100 uM by immunoblotting analysis; assay type: cell-based; conditions: U-937, TDE = time-dependent effect
[15] = molecular target: T1, Histone acetyltransferase p300; experiment: Reversible inhibition of P300 (unknown origin)
[16] = molecular target: T2, Histone acetyltransferase KAT2B; experiment: Inhibition of recombinant PCAF (unknown origin)
Target sequence in this assay (Q92831 whole entry, looked up): as above

[17] = Cell cycle arrest in human U937 cells assessed as increase in hypodiploid nuclei level at 100 uM after 72 hrs by Nicoletti method; assay type: functional, cell-based; conditions: U-937
[18] = Cell cycle arrest in human U937 cells assessed as accumulation at G0/G1 phase at 100 uM after 72 hrs by propidium iodide staining-based FACS analysis; assay type: functional; conditions: U-937
[19] = molecular target: T1, Histone acetyltransferase p300; experiment: Inhibition of recombinant P300 (unknown origin)
[20] = Cytotoxicity against human U937 cells assessed as cell viability at 10 to 100 uM after 24 hrs by MTT assay; assay type: cell-based; conditions: u-937, 24 h
[21] = molecular target: CREB-binding protein (Homo sapiens, UniProt Q92793); experiment: Inhibition of recombinant CBP (unknown origin)
[22] = molecular target: T1, Histone acetyltransferase p300; experiment: Inhibition of P300 in human U937 cells assessed as reduction in H3K9 histone acetylation at 100 uM by immunoblotting analysis; assay type: cell-based; conditions: U-937, TDE = time-dependent effect
[23] = molecular target: T1, Histone acetyltransferase p300; experiment: Noncompetitive inhibition of P300 (unknown origin) using biotinylated H3 as substrate after 15 mins by double reciprocal plot analysis
[24] = molecular target: T1, Histone acetyltransferase p300; experiment: Noncompetitive inhibition of P300 (unknown origin) using acetyl CoA as substrate after 15 mins by double reciprocal plot analysis
[25] = molecular target: Histone acetyltransferase KAT2A (Homo sapiens) (UniProt Q92830); experiment: Inhibition of recombinant GCN5 (unknown origin)
Sequence of Histone acetyltransferase KAT2A (Homo sapiens) (Q92830 2-837 limits assumed): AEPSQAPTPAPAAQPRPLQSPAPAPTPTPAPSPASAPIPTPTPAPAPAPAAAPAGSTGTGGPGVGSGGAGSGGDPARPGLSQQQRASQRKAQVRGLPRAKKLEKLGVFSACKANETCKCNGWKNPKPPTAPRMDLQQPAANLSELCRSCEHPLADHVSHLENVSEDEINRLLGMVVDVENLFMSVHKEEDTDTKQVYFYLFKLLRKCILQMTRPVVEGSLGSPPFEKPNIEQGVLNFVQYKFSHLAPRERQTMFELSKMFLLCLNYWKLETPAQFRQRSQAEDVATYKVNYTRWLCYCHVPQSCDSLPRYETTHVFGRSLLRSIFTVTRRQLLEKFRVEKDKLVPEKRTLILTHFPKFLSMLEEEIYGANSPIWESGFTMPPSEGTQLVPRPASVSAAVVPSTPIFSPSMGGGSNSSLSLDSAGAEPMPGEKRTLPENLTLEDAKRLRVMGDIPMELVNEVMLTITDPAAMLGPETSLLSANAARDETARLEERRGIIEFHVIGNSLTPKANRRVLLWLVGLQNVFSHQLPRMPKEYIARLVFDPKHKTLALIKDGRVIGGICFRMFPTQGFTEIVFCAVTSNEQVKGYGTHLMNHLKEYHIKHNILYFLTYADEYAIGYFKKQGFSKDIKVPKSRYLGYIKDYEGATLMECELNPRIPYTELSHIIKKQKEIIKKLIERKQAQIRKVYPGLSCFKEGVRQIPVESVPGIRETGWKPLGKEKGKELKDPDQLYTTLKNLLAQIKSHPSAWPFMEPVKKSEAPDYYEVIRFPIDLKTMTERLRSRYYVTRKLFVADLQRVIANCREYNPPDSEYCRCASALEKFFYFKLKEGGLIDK

[26] = Induction of beta-mercaptoethanol adduct formation in PBS after 30 mins to 24 hrs by HPLC analysis

| SMILES | Stability [2] | inhibition [3] [%] | Stability [4] | inhibition [7] [%] | also measured |
| --- | --- | --- | --- | --- | --- |
| CC(C)CN1C(=O)C(=Cc2ccc(O)c(O)c2)C(=O)N(CC(C)C)C1=O | Unstable | 91.8 | Stable | – | pIC50 [1]: 5.27 |
| O=C(c1ccccc1)C1C(=O)N(Cc2ccccc2)C(=O)N(Cc2ccccc2)C1=O | – | 84.8 | – | – | Stability [5]: Stable; pKd [6]: 5.62 |
| C=CCN1C(=O)C(=Cc2ccc(OC)c(O)c2)C(=O)N(CC=C)C1=O | Unstable | 49.5 | Stable | 3 | – |
| C=CCN1C(=O)C(=Cc2ccc(O)cc2)C(=O)N(CC=C)C1=O | Unstable | 64.7 | Stable | 3.1 | – |
| C=CCN1C(=O)C(Cc2ccc(O)c(O)c2)C(=O)N(CC=C)C1=O | – | 1.1 | – | – | – |
| CC(C)CN1C(=O)C(=Cc2ccccc2)C(=O)N(CC(C)C)C1=O | Unstable | – | Stable | – | – |
| COc1ccc(C=C2C(=O)N(Cc3ccccc3)C(=O)N(Cc3ccccc3)C2=O)cc1OC | Unstable | 88.2 | Stable | – | pIC50 [1]: 4.94 |
| O=C(c1ccc(O)cc1)C1C(=O)N(Cc2ccccc2)C(=O)N(Cc2ccccc2)C1=O | – | 54.4 | – | – | – |
| C=CCN1C(=O)C(=Cc2ccc(OC)cc2)C(=O)N(CC=C)C1=O | Unstable | 59.9 | Stable | 11.7 | – |
| COc1ccc(C=C2C(=O)N(Cc3ccccc3)C(=O)N(Cc3ccccc3)C2=O)cc1O | Unstable | 97.3 | Stable | – | pIC50 [1]: 5.23; Stability [8]: Unstable |
| O=C1C(=Cc2ccccc2)C(=O)N(Cc2ccccc2)C(=O)N1Cc1ccccc1 | Unstable | – | Stable | – | – |
| O=C(c1ccc(O)c(O)c1)C1C(=O)N(Cc2ccccc2)C(=O)N(Cc2ccccc2)C1=O | – | 48.2 | – | – | – |
| C=CCN1C(=O)C(=Cc2ccc(O)c(O)c2)C(=O)N(CC=C)C1=O | Unstable | 61.6 | Stable | 3.3 | – |
| COc1cc(C=C2C(=O)N(Cc3ccccc3)C(=O)N(Cc3ccccc3)C2=O)ccc1O | Unstable | 97.1 | Stable | – | pIC50 [1]: 5.82; Stability [8]: Unstable |
| CC(C)CN1C(=O)C(C(=O)c2ccccc2)C(=O)N(CC(C)C)C1=O | – | 34.1 | – | – | – |
| COc1cc(C=C2C(=O)N(CC(C)C)C(=O)N(CC(C)C)C2=O)ccc1O | Unstable | 96.4 | Stable | 9.3 | pIC50 [1]: 5.38 |
| O=C1C(=Cc2ccc(O)c(O)c2)C(=O)N(Cc2ccccc2)C(=O)N1Cc1ccccc1 | Unstable | 96.2 | Stable | -2.3 | pIC50 [1]: 5.80; Stability [8]: Unstable |
| COc1ccc(C=C2C(=O)N(CC(C)C)C(=O)N(CC(C)C)C2=O)cc1 | Unstable | 53.8 | Stable | 3.6 | – |
| CC(C)CN1C(=O)C(Cc2ccccc2)C(=O)N(CC(C)C)C1=O | – | 23.1 | – | – | – |
| CCCCCCCCCCCCCCCc1cccc(O)c1C(=O)O [ANACARDIC ACID] | – | – | – | 3.6 | inhibition [9]: < 10%; pIC50 [10]: 4.47 |
| C=CCN1C(=O)C(C(=O)c2ccc(O)c(O)c2)C(=O)N(CC=C)C1=O | – | 4.9 | – | 3.6 | – |
| C=CCN1C(=O)C(=Cc2ccc(OC)c(OC)c2)C(=O)N(CC=C)C1=O | Unstable | 31.1 | Stable | 6.6 | – |

| SMILES | Stability [2] | inhibition [3] [%] | Stability [4] | inhibition [7] [%] | also measured |
| --- | --- | --- | --- | --- | --- |
| CC(C)CN1C(=O)C(C(=O)c2ccc(O)cc2)C(=O)N(CC(C)C)C1=O | – | 39.7 | – | 19.3 | – |
| O=C1C(=Cc2ccc(O)cc2)C(=O)N(Cc2ccccc2)C(=O)N1Cc1ccccc1 | Unstable | 99.2 | Stable | -0.6 | pIC50 [1]: 5.68; inhibition [11]: Active; Stability [8]: Unstable |
| O=C1C(Cc2ccc(O)c(O)c2)C(=O)N(Cc2ccccc2)C(=O)N1Cc1ccccc1 | – | 59.9 | – | – | – |
| CC(C)CN1C(=O)C(=Cc2ccc(O)cc2)C(=O)N(CC(C)C)C1=O | Unstable | 94 | Stable | – | pIC50 [1]: 5.07 |
| C=CCN1C(=O)C(Cc2ccccc2)C(=O)N(CC=C)C1=O | – | 28.9 | – | – | – |
| O=C1C(Cc2ccccc2)C(=O)N(Cc2ccccc2)C(=O)N1Cc1ccccc1 | – | 83.9 | – | – | Stability [5]: Stable; pKd [6]: 6.96 |
| CC(C)CN1C(=O)C(Cc2ccc(O)c(O)c2)C(=O)N(CC(C)C)C1=O | – | 24.3 | – | – | – |
| CC(C)NCC(O)COc1cccc2ccccc12 (stereo not given) [PROPRANOLOL] | – | – | – | – | Papp at 24 h [12]: 4.1 ×10⁻⁶ cm/s |
| CC1=NN(c2ccc(C(=O)O)cc2)C(=O)/C1=C\Cc1ccc(Cc2cc(C)c(C)cc2[N+](=O)[O-])o1 | – | – | – | – | pIC50 [1]: 5.80; inhibition [13]: 86% |
| C=CCN1C(=O)C(=Cc2ccccc2)C(=O)N(CC=C)C1=O | Unstable | – | Stable | – | – |
| C=CCN1C(=O)C(Cc2ccc(O)cc2)C(=O)N(CC=C)C1=O | – | 23.7 | – | -7.5 | – |
| CC(C)CN1C(=O)C(C(=O)c2ccc(O)c(O)c2)C(=O)N(CC(C)C)C1=O | – | 8.4 | – | 3.4 | – |
| C=CCN1C(=O)C(=Cc2ccc(O)c(OC)c2)C(=O)N(CC=C)C1=O | Unstable | 67.3 | Stable | 5.1 | pIC50 [1]: 4.58 |
| COc1ccc(C=C2C(=O)N(CC(C)C)C(=O)N(CC(C)C)C2=O)cc1OC | Unstable | 45.8 | Stable | 9.2 | – |
| COc1ccc(C=C2C(=O)N(CC(C)C)C(=O)N(CC(C)C)C2=O)cc1O | Unstable | 84.7 | Stable | 10.6 | pIC50 [1]: 4.50 |
| C=CCN1C(=O)C(C(=O)c2ccc(O)cc2)C(=O)N(CC=C)C1=O | – | 19.1 | – | -2.7 | – |
| COc1ccc(C=C2C(=O)N(Cc3ccccc3)C(=O)N(Cc3ccccc3)C2=O)cc1 | Unstable | 93.6 | Stable | -8.2 | pIC50 [1]: 5.10 |
| C=CCN1C(=O)C(C(=O)c2ccccc2)C(=O)N(CC=C)C1=O | – | 28.1 | – | – | – |
| CC(C)CN1C(=O)C(Cc2ccc(O)cc2)C(=O)N(CC(C)C)C1=O | – | 64.6 | – | 5 | – |
| Cc1cc(O)cc(C)c1C=C1C(=O)N(Cc2ccccc2)C(=O)N(Cc2ccccc2)C1=O | – | – | – | – | Papp at 24 h [12]: 1.9 ×10⁻⁶ cm/s; Stability [5]: Stable; inhibition [14]: tde; inhibition [15]: Active; inhibition [16]: inactive; Activity [17]: Active; Activity [18]: Active; pIC50 [19]: 5.54; Activity [20]: Non-toxic; pIC50 [21]: 5.96; inhibition [22]: tde; pKi [23]: 5.03; alphaKi [23]: 6.8 µM; pKi [24]: 5.70; alphaKi [24]: 5.7 µM; inhibition [25]: inactive; Activity [26]: inactive |
| O=C1C(Cc2ccc(O)cc2)C(=O)N(Cc2ccccc2)C(=O)N1Cc1ccccc1 | – | 60.3 | – | – | – |
